Experimental data from PubChem BioAssay (NCI).
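All cell lines were grown in 96-well plates and treated with compound for 48 hours. TGI: concentration producing complete growth inhibition.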

What was measured:
Test in all cases: inhibition of tumour cell growth, NCI panel, 48 h
CCRF-CEM leukemia = tested on: CCRF-CEM leukemia
NCI-H23 lung = tested on: NCI-H23 lung
OVCAR-4 ovarian = tested on: OVCAR-4 ovarian
HCT-116 colon = tested on: HCT-116 colon
HS 578T breast = tested on: HS 578T breast
KM12 colon = tested on: KM12 colon
SR leukemia = tested on: SR leukemia
ACHN renal = tested on: ACHN renal
MOLT-4 leukemia = tested on: MOLT-4 leukemia
A498 renal = tested on: A498 renal
SN12C renal = tested on: SN12C renal
MDA-N = tested on: MDA-N
SW-620 colon = tested on: SW-620 colon
SF-268 CNS = tested on: SF-268 CNS
PC-3 prostate = tested on: PC-3 prostate
SNB-75 CNS = tested on: SNB-75 CNS
CAKI-1 renal = tested on: CAKI-1 renal
UACC-62 melanoma = tested on: UACC-62 melanoma
SK-MEL-2 melanoma = tested on: SK-MEL-2 melanoma
LOX IMVI melanoma = tested on: LOX IMVI melanoma
U251 CNS = tested on: U251 CNS
SNB-19 CNS = tested on: SNB-19 CNS
OVCAR-5 ovarian = tested on: OVCAR-5 ovarian
HL-60(TB) leukemia = tested on: HL-60(TB) leukemia
SK-MEL-28 melanoma = tested on: SK-MEL-28 melanoma
HT29 colon = tested on: HT29 colon
EKVX NSCLC = tested on: EKVX NSCLC
DU-145 prostate = tested on: DU-145 prostate
RPMI-8226 leukemia = tested on: RPMI-8226 leukemia
MDA-MB-435 = tested on: MDA-MB-435
MDA-MB-231 breast = tested on: MDA-MB-231 breast
NCI-H522 lung = tested on: NCI-H522 lung
K-562 leukemia = tested on: K-562 leukemia
UO-31 renal = tested on: UO-31 renal
MCF7 breast = tested on: MCF7 breast
NCI-H460 lung = tested on: NCI-H460 lung
SK-MEL-5 melanoma = tested on: SK-MEL-5 melanoma
SF-539 CNS = tested on: SF-539 CNS
TK-10 renal = tested on: TK-10 renal
NCI/ADR-RES ovarian = tested on: NCI/ADR-RES ovarian
HCT-15 colon = tested on: HCT-15 colon
T-47D breast = tested on: T-47D breast
A549 NSCLC = tested on: A549 NSCLC
OVCAR-8 ovarian = tested on: OVCAR-8 ovarian
MALME-3M melanoma = tested on: MALME-3M melanoma
HOP-92 NSCLC = tested on: HOP-92 NSCLC
SK-OV-3 ovarian = tested on: SK-OV-3 ovarian
SF-295 CNS = tested on: SF-295 CNS
786-0 renal = tested on: 786-0 renal
IGROV1 ovarian = tested on: IGROV1 ovarian
NCI-H226 lung = tested on: NCI-H226 lung
UACC-257 melanoma = tested on: UACC-257 melanoma
COLO 205 colon = tested on: COLO 205 colon
OVCAR-3 ovarian = tested on: OVCAR-3 ovarian
M14 melanoma = tested on: M14 melanoma
HOP-62 NSCLC = tested on: HOP-62 NSCLC

Measured: TGI

COC(=O)C1CCC(=O)N1CN(C(C)=O)c1ccccc1 (stereo unspecified)
> 100 µM: all assays above
